“Also recorded” adds a separate entry of the source. Where two headings read alike, the source gives them in different places.
Key:
[1] = target: T1, human DNA methyltransferase 1 (DNMT1) (Homo sapiens, UniProt P26358); experiment: smFRET B-Z transition-based DNA methylation (DMT inhibition) assay with DNMT1, HM core substrate; type: biochemical; conditions: 100 U/mL DNMT1, HM core, 160 μM SAM, 50 mM Mg2+, 2-h incubation; read-out: IC50 (degree of inhibition of DNMT1 methylation activity)
T1 construct: purchased NEB (New England Biolabs, Inc., Ipswich, MA, USA)
Protocol: (§1) Here we define the degree of inhibition as: DOI=P(Z;DMT)−P(Z;DMT+drug)/P(Z;DMT)−P(Z;0) where P(Z;0) is the population of Z-DNA without any treatment (neither DMT nor inhibitor drug), P(Z;DMT) the Z-DNA population after incubation with DMT, and P(Z;DMT+drug) the Z-DNA population after incubation with DMT together with an inhibitor drug. […] On the opposite limit, the inhibition would be complete (DOI = 1) if P(Z;DMT+drug) completely reduces to the level of P(Z;0) . We employed the UM and HM molecules as substrates for M.SssI and DNMT1, respectively. We used 50 mM Mg^2+ and applied 80 U/mL M.SssI or 100 U/mL DNMT1. […] To check this possibility, we reduced SAM to 10 μM and repeated the inhibitor assay.
DMTs can change cytosine to methylcytosine by converting SAM to SAH (S-adenosyl homocysteine). In the inhibitor-free assay, we added reagents to water (or 0, 1.75, and 2.5% DMSO in water in control reactions for inhibitor assays) in the following order: SAM, 10× buffer, DNA, and M.SssI or DNMT1. In the DNMT1 assay, the reaction mixture of 20 μL contained 25 nM DNA duplex and 20~400 U/mL (in the inhibitor-free assays) or 100 U/mL (in the inhibitor assays) DNMT1 in the reaction buffer (160 μM SAM and 100 μg/mL BSA in 1× DNMT1 buffer (200 mM NaCl, 50 mM Tris-HCl, 1 mM EDTA, 1 mM DTT, 50% glycerol, pH 7.5)). In the M.SssI assay, the reaction mixture of 20 μL contained 25 nM DNA duplex and 10~200 U/mL (in the inhibitor-free assays) or 80 U/mL (in the inhibitor assays) M.SssI in the reaction buffer (160 μM SAM in 1× NEB buffer 2 (50 mM NaCl, 10 mM Tris-HCl, 10 mM MgCl2, 1 mM DTT, pH 7.9)). The effect of DMSO itself was tested because it was used in a solvent for DMT inhibitors. […] The mixture was incubated at 37 °C. After various lengths of incubation time (typically 2 h), the methylation reaction was stopped by heat inactivation of the enzymes at 65 °C for 20 min and the reaction mixtures were stored at −20 °C until the future experiments with the smFRET technique. […]

[2] = target: T2, M.SssI (Spiroplasma monobiae, UniProt P15840); experiment: smFRET B-Z transition-based DNA methylation (DMT inhibition) assay with M.SssI, UM core substrate; type: biochemical
T2 construct: purchased NEB (New England Biolabs, Inc., Ipswich, MA, USA)
Protocol: as §1
DMTs can change cytosine to methylcytosine by converting SAM to SAH (S-adenosyl homocysteine). In the inhibitor-free assay, we added reagents to water (or 0, 1.75, and 2.5% DMSO in water in control reactions for inhibitor assays) in the following order: SAM, 10× buffer, DNA, and M.SssI or DNMT1. In the DNMT1 assay, the reaction mixture of 20 μL contained 25 nM DNA duplex and 20~400 U/mL (in the inhibitor-free assays) or 100 U/mL (in the inhibitor assays) DNMT1 in the reaction buffer (160 μM SAM and 100 μg/mL BSA in 1× DNMT1 buffer (200 mM NaCl, 50 mM Tris-HCl, 1 mM EDTA, 1 mM DTT, 50% glycerol, pH 7.5)). In the M.SssI assay, the reaction mixture of 20 μL contained 25 nM DNA duplex and 10~200 U/mL (in the inhibitor-free assays) or 80 U/mL (in the inhibitor assays) M.SssI in the reaction buffer (160 μM SAM in 1× NEB buffer 2 (50 mM NaCl, 10 mM Tris-HCl, 10 mM MgCl2, 1 mM DTT, pH 7.9)). The effect of DMSO itself was tested because it was used in a solvent for DMT inhibitors. […] The mixture was incubated at 37 °C. After various lengths of incubation time (typically 2 h), the methylation reaction was stopped by heat inactivation of the enzymes at 65 °C for 20 min and the reaction mixtures were stored at −20 °C until the future experiments with the smFRET technique.
In the DMT inhibition assays, DMT inhibitors at various concentrations were added together with either M.SssI or DNMT1 when the enzyme was added to the reaction tube (Figure 4A). The reaction and analysis were performed identically except for the addition of inhibitors. […] In these assays, we varied the concentrations of the reagents (proteins or inhibitors) or incubation times. […]

T2 sequence (P15840 whole entry): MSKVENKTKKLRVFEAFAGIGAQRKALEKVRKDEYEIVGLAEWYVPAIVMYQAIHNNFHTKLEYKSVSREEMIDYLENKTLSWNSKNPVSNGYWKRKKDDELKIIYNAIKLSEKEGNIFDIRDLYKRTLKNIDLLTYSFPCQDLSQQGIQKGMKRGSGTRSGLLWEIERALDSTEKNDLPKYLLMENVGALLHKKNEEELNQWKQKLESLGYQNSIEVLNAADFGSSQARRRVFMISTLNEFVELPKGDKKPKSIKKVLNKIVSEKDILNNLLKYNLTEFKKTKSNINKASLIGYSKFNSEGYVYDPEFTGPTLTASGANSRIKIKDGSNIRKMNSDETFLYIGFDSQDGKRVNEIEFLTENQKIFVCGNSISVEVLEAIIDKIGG
T1 sequence (P26358 whole entry): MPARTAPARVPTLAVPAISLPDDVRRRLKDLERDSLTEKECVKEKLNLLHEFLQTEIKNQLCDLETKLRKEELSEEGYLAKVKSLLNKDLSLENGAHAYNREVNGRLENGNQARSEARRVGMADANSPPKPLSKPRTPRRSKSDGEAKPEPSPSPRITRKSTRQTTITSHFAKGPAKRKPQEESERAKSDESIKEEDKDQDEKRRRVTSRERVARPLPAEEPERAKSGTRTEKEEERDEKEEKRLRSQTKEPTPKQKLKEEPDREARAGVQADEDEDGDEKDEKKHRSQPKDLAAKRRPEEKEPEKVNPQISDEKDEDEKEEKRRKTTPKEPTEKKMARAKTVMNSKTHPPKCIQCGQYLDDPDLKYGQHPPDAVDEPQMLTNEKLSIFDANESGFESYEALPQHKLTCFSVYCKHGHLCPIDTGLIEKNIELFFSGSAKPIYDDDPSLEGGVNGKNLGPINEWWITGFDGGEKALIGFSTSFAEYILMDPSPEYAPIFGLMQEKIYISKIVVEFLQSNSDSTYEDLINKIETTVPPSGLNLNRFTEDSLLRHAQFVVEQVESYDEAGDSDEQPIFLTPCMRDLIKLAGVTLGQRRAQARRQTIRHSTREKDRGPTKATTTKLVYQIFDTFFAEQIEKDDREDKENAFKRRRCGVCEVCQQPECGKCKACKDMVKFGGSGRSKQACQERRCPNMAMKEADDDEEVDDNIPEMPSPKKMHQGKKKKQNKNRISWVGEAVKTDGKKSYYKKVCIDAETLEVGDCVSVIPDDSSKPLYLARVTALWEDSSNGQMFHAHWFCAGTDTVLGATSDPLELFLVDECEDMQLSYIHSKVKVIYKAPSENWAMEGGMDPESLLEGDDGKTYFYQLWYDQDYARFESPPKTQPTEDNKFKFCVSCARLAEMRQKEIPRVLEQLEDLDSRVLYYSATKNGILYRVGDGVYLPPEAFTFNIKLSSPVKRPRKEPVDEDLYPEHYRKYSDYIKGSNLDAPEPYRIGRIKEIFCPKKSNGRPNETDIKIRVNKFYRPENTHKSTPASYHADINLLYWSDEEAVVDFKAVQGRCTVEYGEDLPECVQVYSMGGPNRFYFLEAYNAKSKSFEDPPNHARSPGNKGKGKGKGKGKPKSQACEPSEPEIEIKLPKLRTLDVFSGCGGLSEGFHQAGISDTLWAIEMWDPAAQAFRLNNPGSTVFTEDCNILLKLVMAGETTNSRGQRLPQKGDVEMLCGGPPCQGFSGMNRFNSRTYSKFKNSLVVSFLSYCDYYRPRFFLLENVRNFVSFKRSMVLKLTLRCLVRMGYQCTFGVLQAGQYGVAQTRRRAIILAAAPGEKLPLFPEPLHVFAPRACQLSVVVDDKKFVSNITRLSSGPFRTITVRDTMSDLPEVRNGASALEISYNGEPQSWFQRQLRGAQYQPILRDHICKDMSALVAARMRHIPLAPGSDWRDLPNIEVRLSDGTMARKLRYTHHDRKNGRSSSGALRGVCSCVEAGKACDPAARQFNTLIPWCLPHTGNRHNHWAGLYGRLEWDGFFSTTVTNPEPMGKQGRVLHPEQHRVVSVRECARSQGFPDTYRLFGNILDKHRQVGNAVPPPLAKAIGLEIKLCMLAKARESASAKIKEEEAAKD

SMILES | IC50 [1] [µM] | IC50 ([2]; IC50 (degree of inhibition of M.SssI methylation activity), 80 U/mL M.SssI, UM core, 160 μM SAM, 50 mM Mg2+, 2-h incubation) [µM] | Effect of [DMSO] on DNA methylation activity of M.SssI ([2]; [DMSO] up to 5 %, [M.SssI] = 80 U/ml, 50 mM Mg2+, Figure S1) | IC50 ([2]; 80 U/mL M.SssI, UM core, 160 μM SAM, 50 mM Mg2+, 2-h incubation, read-out: IC50 (degree of inhibition of M.SssI methylation activity)) [µM] | IC50 ([2]; [SAM] = 10 μM, M.SssI, Figure S8, read-out: IC50 (degree of inhibition of M.SssI methylation activity) with low [SAM]) [µM]
COc1cc(/C=C/C(=O)CC(=O)/C=C/c2ccc(O)c(OC)c2)ccc1O [curcumin] | ~1.3 | – | – | – | –
O=c1c(-c2ccc(O)cc2)coc2cc(O)cc(O)c12 [genistein] | ~400 | ~600 | – | – | –
C[S+](C)[O-] [DMSO] | – | – | remains unchanged; also recorded: negligible effect | – | –
O=C(O[C@@H]1Cc2c(O)cc(O)cc2O[C@@H]1c1cc(O)c(O)c(O)c1)c1cc(O)c(O)c(O)c1 [EGCG, epigallocatechin gallate] | ~100 | – | – | ~80 | < 5
